Entries after “also recorded” stand apart in the source; their conditions may differ.
Legend:
[1] = system: rabbit aorta; test: inhibition of contraction using extirpated blood vessel preparations (vasodilative activity); details: contraction by 20 mM KCl, added 30 minutes before; for inhibition at 10 µg/mL: final concentration 10.0 μg/ml
Method: The vosodilative activity of KS-504a, KS-504b and KS-504d is explained below, referring to Experimental Example 1 on inhibition of contraction using extirpated blood vessel preparations.
White bastard rabbits (male, 2-3 kg) were incised along the abdominal median line. The aorta was cut out with a length of about 2-2.5 cm from the venter, and spiral strips with a width of 3-4 mm were prepared therefrom. The strips were ligated with silk yarn at both ends, and the lower end was connected to a stationary rod, whereas the upper end was connected to a tension transducer (TB-612T, a product of Nippon Koden Co., Ltd.). The strips were suspended under an initial tension of 1.5 g. The strips were soaked in a Krebs-Henseleit solution at 32° C. whose composition in g/l was NaCl: 6.92, KCl: 0.35, MgSO4.7H2 O: 0.29, CaCl2.2H2 O: 0.37, KH2 PO4 : 0.16, NaHCO3 :2.1 and glucose: 1.0 in a Magnus tube, and a gas (95% O2 and 5% CO2) was introduced therein. After being stabilized for 1 to 2 hours, the preparations were used for the experiment. Potassium chloride was added to the Magnus tube to a final concentration of 20 mM. The resulting contraction reaction was recorded on a polygraph (AM-6000, a product of Nippon Koden Co., Ltd.) in equal scales through the tension transducer. KS-504a, KS-504b and KS-504d were each dissolved in dimethyl sulfoxide to a concentration of mg/ml, and the solutions were properly diluted with a Krebs-Henseleit solution and added to the Magnus tube 30 minutes before the application of the contracting
*The rate of inhibition of contraction was calculated according to the
Rate of inhibition of contraction (%)

[2] = solubility and stability in alkaline medium (physicochemical properties); details: for stability in basic substances / alkaline water: basic substances such as pyridine, monoethanolamine, and alkaline water; for Solubility: Also soluble in basic substances: soluble but readily decomposed; for Solubility: Insoluble in: solvents listed as Insoluble; for Solubility: Soluble in: solvents listed as Soluble
[3] = system: rat peritoneal exudate cells; test: inhibition of histamine secretion from rat peritoneal exudate cells; format: cell-based; details: 10 min, phosphatidyl-L-serine and concanavalin A, 37° C, read-out: Rate of suppression of histamine secretion
Method: Influence on histamine secretion from rat peritoneal exudate cells
Rats with body weights of 150-180 g were killed under dry ether anesthesia by exsanguination, and mast cell medium prepared according to the method of Sullivan, et al. J. Immunol. 114, 1473 (1975)](hereinafter abbreviated as MCM, composition: 150mM NaCl, 3.7 mM KCl, 3 mM Na2 HPO4, 3.5 mM KH2 PO4, 1 mM CaCl2, 5.6 mM glucose, 0.1% bovine serum albumin, 10 U/ml heparin) was injected intraperitoneally into the animals at 6 ml/animal. The abdominal parts were massaged for two minutes, and then cut open to sample exuded solution in the abdominal cavities. The exuded solution collected from 6 rats was centrifuged a 100×g for 5 minutes at 4° C, and the precipitate was mixed with an appropriate amount of water-cooled MCM, and washed three times to prepare a cell suspension (peritoneal exudate cells, hereinafter abbreviated as PEC) containing mast cells at a final concentration of about 3×10^4 cells/ml. Identification of mast cells was carried out by staining intracellular granules with 0.05% Toluidine Blue. Then, 1 ml of the thus obtained PEC was preincubated at 37° C for 10 minutes, and then admixed with 0.1 ml of test solutions at various concentrations and incubated for 10 minutes. The incubated mixtures were further admixed with 0.1 ml each of 100 μg/ml phosphatidyl-L-serine and 1000 μg/ml concanavalin A, followed by incubation for 15 minutes. The reaction was discontinued by addition of 3 ml of ice-cooled physiological saline solution, and the mixture was centrifuged at 1100×g for 10 minutes at 4° C. to obtain a supernatant and a residue. Histamine contents of the supernatant and the residue were measured by fluorometry according to the method of Komatsu [Allergy 27, 67 (1978)].
The histamine secretion rate was defined by a percentage of histamine content in the supernatant to total histamine content in the cells. The rate of suppression of histamine secretion by the test solution was calculated according to the following equation.
Rate of suppression of secretion (%) [formula]

[4] = minimal lethal dose in mice; format: in vivo; details: p.o.
[5] = Oryctolagus cuniculus, read-out: Rate of inhibition of contraction

## OC1C(Cl)(Cl)C(=C(Cl)Cl)C2(OC2Cl)C1(Cl)Cl (stereo not drawn) [KS-504b]
[1]; [5]
  inhibition at 10 µg/mL: 100%
[1]; final concentration 1.0 μg/ml
  Rate of inhibition of contraction: 76%
[1]; final concentration 3.0 μg/ml
  Rate of inhibition of contraction: 80%
[2]
  stability in basic substances / alkaline water: readily decomposed
  Solubility: Also soluble in basic substances: pyridine, monoethanolamine, etc. and alkaline
  Solubility: Insoluble in: water, acidic water
  Solubility: Soluble in: methanol, chloroform, acetone, ethyl; also recorded: acetate, acetonotrile; also recorded: dimethylsulfoxide

## O=CC1=C(C(Cl)(Cl)Cl)C(Cl)(Cl)C(O)C1(Cl)Cl (stereo not drawn) [KS-504e]
[3]; test solution 0.03 μg/ml
  inhibition at 0.03 µg/mL: 15%
[3]; test solution 0.1 μg/ml
  inhibition at 0.1 µg/mL: 62%
[3]; test solution 0.3 μg/ml
  inhibition at 0.3 µg/mL: 100%
[2]
  stability in basic substances / alkaline water: readily decomposed
  Solubility: Also soluble in basic substances: pyridine, monoethanolamine, etc. and alkaline
  Solubility: Insoluble in: water, acidic water
  Solubility: Soluble in: methanol, chloroform, acetone, ethyl; also recorded: acetate, acetonitrile; also recorded: dimethylsulfoxide

## OC1C(Cl)(Cl)C(=C(Cl)Cl)C(O)(C(Cl)Cl)C1(Cl)Cl (stereo not drawn) [KS-504d]
[1]; [5]
  inhibition at 10 µg/mL: 6.9%
[1]; Oryctolagus cuniculus, final concentration 30.0 μg/ml, read-out: Rate of inhibition of contraction
  inhibition at 30 µg/mL: 91%
[2]
  stability in basic substances / alkaline water: readily decomposed
  Solubility: Also soluble in basic substances: pyridine, monoethanolamine, etc. and alkaline
  Solubility: Soluble in: acetone, ethyl acetate, acetonitrile; also recorded: benzene, methanol, chloroform; also recorded: hexane, water, acidic water

## OC1C(Cl)(Cl)C(=C(Cl)Cl)C2(OC2Cl)C1(Cl)Cl (stereo not drawn) [KS-504a]
[1]; Oryctolagus cuniculus, final concentration 0.1 μg/ml, read-out: Rate of inhibition of contraction
  inhibition at 0.1 µg/mL: 37%
[1]; Oryctolagus cuniculus, final concentration 1.0 μg/ml, read-out: Rate of inhibition of contraction
  inhibition at 1 µg/mL: 59%
[1]; Oryctolagus cuniculus, final concentration 3.0 μg/ml, read-out: Rate of inhibition of contraction
  inhibition at 3 µg/mL: 82%
[4]
  minimal lethal dose: 300 mg/kg
[2]
  stability in basic substances / alkaline water: readily decomposed
  Solubility: Also soluble in basic substances: pyridine, monoethanolamine, etc. and alkaline
  Solubility: Insoluble in: water, acidic water
  Solubility: Soluble in: methanol, n-butanol, chloroform; also recorded: acetone, ethyl acetate; also recorded: dimethylformamide, dimethylsulfoxide; also recorded: benzene, acetic acid, hexane
